This passage reports Ki results from US7446199B2, “Compositions useful as inhibitors of protein kinases” (Vertex Pharmaceuticals Incorporated, priority 2003, dated 2008).

For one test, the target named is T1, JAK3 (Homo sapiens, UniProt P52333).
T1 sequence (P52333 1-1124): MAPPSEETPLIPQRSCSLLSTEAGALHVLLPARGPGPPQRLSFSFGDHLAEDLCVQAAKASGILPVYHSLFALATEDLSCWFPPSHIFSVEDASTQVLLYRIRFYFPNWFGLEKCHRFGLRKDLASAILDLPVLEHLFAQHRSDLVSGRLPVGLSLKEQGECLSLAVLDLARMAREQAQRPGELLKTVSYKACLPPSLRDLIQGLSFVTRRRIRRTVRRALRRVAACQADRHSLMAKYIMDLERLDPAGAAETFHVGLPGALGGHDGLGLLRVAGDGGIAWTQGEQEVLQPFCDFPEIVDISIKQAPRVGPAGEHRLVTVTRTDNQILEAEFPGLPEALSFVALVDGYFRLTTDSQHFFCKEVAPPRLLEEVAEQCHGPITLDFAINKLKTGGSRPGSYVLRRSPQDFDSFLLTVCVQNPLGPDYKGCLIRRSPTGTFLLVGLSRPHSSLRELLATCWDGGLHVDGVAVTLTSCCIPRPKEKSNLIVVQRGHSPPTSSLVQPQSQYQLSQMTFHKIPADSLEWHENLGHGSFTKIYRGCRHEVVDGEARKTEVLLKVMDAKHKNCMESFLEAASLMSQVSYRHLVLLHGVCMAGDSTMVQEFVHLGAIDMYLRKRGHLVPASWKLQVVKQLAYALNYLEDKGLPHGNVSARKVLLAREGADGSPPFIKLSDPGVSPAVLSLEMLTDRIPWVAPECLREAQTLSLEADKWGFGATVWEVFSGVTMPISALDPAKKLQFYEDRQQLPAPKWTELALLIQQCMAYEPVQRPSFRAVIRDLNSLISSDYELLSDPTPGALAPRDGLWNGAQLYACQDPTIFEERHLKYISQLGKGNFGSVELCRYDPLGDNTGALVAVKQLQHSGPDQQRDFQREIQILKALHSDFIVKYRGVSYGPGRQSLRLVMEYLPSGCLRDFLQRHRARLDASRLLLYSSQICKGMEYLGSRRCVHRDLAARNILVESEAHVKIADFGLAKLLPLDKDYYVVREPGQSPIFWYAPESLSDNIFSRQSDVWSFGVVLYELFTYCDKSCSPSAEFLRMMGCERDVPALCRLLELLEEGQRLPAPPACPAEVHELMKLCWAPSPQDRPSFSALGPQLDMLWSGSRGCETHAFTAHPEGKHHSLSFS
The test can be described thus: JAK3 inhibition assay (ELISA, Poly (Glu, Ala, Tyr) coated plates). Type of test: biochemical. As to conditions: 2 mM ATP, 60 minutes at 30° C. In a few lines:
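ELISA on Poly(Glu,Ala,Tyr) 6:3:1-coated plates with 2 mM ATP and 5 mM MgCl2. JAK enzyme started the reaction, run 60 min at 30° C. Phosphotyrosine was detected with HRP-conjugated 4G10 antibody and TMB, read at 450 nm, and IC50 was derived from optical densities.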
A general note: An ELISA detects its analyte on a solid surface through an enzyme-linked reagent.

Another test has as its target c-Met (Homo sapiens, UniProt P08581). The test is described as follows: Ki determination for the inhibition of c-Met, coupled enzyme system. The test is classed as biochemical. As to conditions: 200 μM ATP, 10 μM polyGluTyr, 80 nM c-Met, 30° C. In a few lines:
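Coupled pyruvate kinase/lactate dehydrogenase NADH assay with 80 nM c-Met, 200 μM ATP, 10 μM polyGluTyr in pH 7.5 HEPES, 1.5% DMSO at 30° C. Compound (0.006–12.5 μM final, 12-point) preincubated 10 min; ATP started reaction, rates read over 10 min; Ki derived from rate versus inhibitor concentration.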

Structures are written as SMILES.

The Ki is a dissociation constant, usually derived from enzyme kinetics or from competition with a known ligand.

c-Met, sequence (P08581 25-1390): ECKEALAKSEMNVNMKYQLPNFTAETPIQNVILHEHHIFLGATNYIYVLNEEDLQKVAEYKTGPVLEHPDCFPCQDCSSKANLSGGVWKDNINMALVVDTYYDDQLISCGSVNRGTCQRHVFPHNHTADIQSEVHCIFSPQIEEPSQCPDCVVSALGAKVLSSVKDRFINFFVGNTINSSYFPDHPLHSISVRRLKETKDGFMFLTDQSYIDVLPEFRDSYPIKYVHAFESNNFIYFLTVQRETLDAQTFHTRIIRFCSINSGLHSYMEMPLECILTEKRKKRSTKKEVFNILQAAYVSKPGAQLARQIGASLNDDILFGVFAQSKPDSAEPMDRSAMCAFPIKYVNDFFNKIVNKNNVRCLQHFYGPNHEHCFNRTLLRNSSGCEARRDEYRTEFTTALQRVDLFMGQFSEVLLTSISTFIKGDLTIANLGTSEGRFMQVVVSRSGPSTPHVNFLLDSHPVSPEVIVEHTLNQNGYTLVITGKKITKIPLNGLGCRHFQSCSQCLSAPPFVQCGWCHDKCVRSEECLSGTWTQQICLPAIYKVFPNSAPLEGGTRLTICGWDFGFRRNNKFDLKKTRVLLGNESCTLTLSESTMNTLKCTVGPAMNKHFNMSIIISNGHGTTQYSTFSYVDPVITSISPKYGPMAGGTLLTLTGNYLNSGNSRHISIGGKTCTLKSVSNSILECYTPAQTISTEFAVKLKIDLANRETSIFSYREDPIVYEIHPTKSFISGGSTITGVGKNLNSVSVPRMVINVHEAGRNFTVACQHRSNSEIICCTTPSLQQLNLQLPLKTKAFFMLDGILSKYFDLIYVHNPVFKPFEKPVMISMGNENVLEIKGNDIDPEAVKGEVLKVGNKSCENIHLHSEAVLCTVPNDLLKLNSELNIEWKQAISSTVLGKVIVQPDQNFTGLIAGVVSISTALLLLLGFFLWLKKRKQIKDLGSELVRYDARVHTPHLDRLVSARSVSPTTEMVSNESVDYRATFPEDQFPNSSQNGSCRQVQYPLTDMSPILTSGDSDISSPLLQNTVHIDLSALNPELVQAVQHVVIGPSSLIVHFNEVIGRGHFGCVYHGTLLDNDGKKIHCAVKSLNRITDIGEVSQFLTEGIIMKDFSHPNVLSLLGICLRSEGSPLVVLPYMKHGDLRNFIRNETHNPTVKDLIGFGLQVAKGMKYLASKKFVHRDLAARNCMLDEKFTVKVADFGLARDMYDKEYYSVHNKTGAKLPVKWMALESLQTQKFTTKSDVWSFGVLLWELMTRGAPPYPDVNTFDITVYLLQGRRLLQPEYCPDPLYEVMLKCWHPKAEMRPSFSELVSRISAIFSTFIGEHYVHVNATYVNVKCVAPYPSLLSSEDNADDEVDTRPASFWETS

On to `Fc1ccc(-c2cnc3[nH]cc(-c4oncc4-c4cccc(F)c4F)c3c2)cn1` [Compound 69, 3-[4-(2,3-Difluoro-phenyl)-isoxazol-5-yl]-5-(6-fluoro-pyridin-3-yl)-1H-pyrrolo[2,3-b]pyridine], for which the Ki on JAK3 was 200 to 1000 nM; on c-Met, < 200 nM.

Take `CN1CCN(c2ccc(-c3cnc4[nH]cc(-c5oncc5-c5cccc(F)c5F)c4c3)cc2)CC1` [Compound 70, 3-[4-(2,3-Difluoro-phenyl)-isoxazol-5-yl]-5-[4-(4-methyl-piperazin-1-yl)-phenyl]-1H-pyrrolo[2,3-b]pyridine methanesulfonate]: the Ki at JAK3 and on c-Met was < 200 nM in each case.

Consider `CN1CCN(c2ccc(-c3cnc4[nH]cc(-c5oncc5-c5cccc(F)c5F)c4c3)cn2)CC1` [Compound 71, 3-[4-(2,3-Difluoro-phenyl)-isoxazol-5-yl]-5-[6-(4-methyl-piperazin-1-yl)-pyridin-3-yl]-1H-pyrrolo[2,3-b]pyridine], for which the Ki on JAK3 and on c-Met was < 200 nM in each case.

Regarding `CCN1CCC(c2cnc3[nH]cc(-c4oncc4-c4cccc(F)c4F)c3c2)CC1` [Compound 72, 3-[4-(2,3-Difluoro-phenyl)-isoxazol-5-yl]-5-(1-ethyl-piperidin-4-yl)-1H-pyrrolo[2,3-b]pyridine], the Ki on JAK3 was 1000 to 12500 nM; on c-Met, < 200 nM.

In the case of `Fc1cccc(-c2cnoc2-c2c[nH]c3ncc(-c4ccccn4)cc23)c1F` [Compound 73, 3-(4-(2,3-Difluoro-phenyl)-isoxazol-5-yl)-5-pyridin-2-yl-1H-pyrrolo[2,3-b]pyridine], the Ki at JAK3 and at c-Met was < 200 nM in each case.

For `Fc1cccnc1-c1cnc2[nH]cc(-c3oncc3-c3cccc(F)c3F)c2c1` [Compound 74, 3-[4-(2,3-Difluoro-phenyl)-isoxazol-5-yl]-5-(3-fluoro-pyridin-2-yl)-1H-pyrrolo[2,3-b]pyridine], the Ki at JAK3 is 200 to 1000 nM; at c-Met, < 200 nM.

For `Fc1cccc(-c2cnoc2-c2c[nH]c3ncc(-c4ncccn4)cc23)c1F` [Compound 75, 3-[4-(2,3-Difluoro-phenyl)-isoxazol-5-yl]-5-pyrimidin-2-yl-1H-pyrrolo[2,3-b]pyridine], the Ki on JAK3 and on c-Met was < 200 nM throughout.

`Fc1cccc(-c2cnoc2-c2c[nH]c3ncc(-c4c[nH]cn4)cc23)c1F` [Compound 76, 3-[4-(2,3-Difluoro-phenyl)-isoxazol-5-yl]-5-(3H-imidazol-4-yl)-1H-pyrrolo[2,3-b]pyridine]: the Ki on JAK3 and on c-Met was < 200 nM each time.

In the case of `Fc1cccc(-c2cnoc2-c2c[nH]c3ncc(-c4cnc5[nH]ccc5c4)cc23)c1F` [Compound 77, 3-[4-(2,3-Difluoro-phenyl)-isoxazol-5-yl]-1H,1′H-[5,5′]bi[pyrrolo[2,3-b]pyridinyl]], the Ki at JAK3 and at c-Met was < 200 nM each time.

In the case of `COc1ccnc(-c2cnc3[nH]cc(-c4oncc4-c4cccc(F)c4F)c3c2)c1` [Compound 78, 3-[4-(2,3-Difluoro-phenyl)-isoxazol-5-yl]-5-(4-methoxy-pyridin-2-yl)-1H-pyrrolo[2,3-b]pyridine], the Ki on JAK3 was 200 to 1000 nM; on c-Met, < 200 nM.

Turning to `CN(C)C(=O)c1ccc(-c2cnc3[nH]cc(-c4oncc4-c4cccc(F)c4F)c3c2)nc1` [Compound 79, 6-{3-[4-(2,3-Difluoro-phenyl)-isoxazol-5-yl]-1H-pyrrolo [2,3-b]pyridin-5-yl}-N,N-dimethyl-nicotinamide], the Ki on JAK3 and at c-Met was < 200 nM in each case.

Take `CN(C)c1ccnc(-c2cnc3[nH]cc(-c4oncc4-c4cccc(F)c4F)c3c2)c1` [Compound 80, (2-{3-[4-(2,3-Difluoro-phenyl)-isoxazol-5-yl]-1H-pyrrolo[2,3-b]pyridin-5-yl}-pyridin-4-yl)-dimethyl-amine]: the Ki on JAK3 and on c-Met was 1000 to 12500 nM each time.

`CN(C)Cc1cc(Cl)nc(-c2cnc3[nH]cc(-c4oncc4-c4cccc(F)c4F)c3c2)c1` [Compound 81, (2-Chloro-6-{3-[4-(2,3-difluoro-phenyl)-isoxazol-5-yl]-1H-pyrrolo[2,3-b]pyridin-5-yl}-pyridin-4-ylmethyl)-dimethyl-amine]: the values for the Ki on JAK3 and on c-Met were 200 to 1000 nM and < 200 nM, respectively.

As to `CN(C)Cc1ccnc(-c2cnc3[nH]cc(-c4oncc4-c4cccc(F)c4F)c3c2)c1` [Compound 82, (2-{3-[4-(2,3-Difluoro-phenyl)-isoxazol-5-yl]-1H-pyrrolo[2,3-b]pyridin-5-yl}-pyridin-4-ylmethyl)-dimethyl-amine], the Ki at JAK3 and on c-Met was < 200 nM in each case.

Regarding `Nc1ccnc(-c2cnc3[nH]cc(-c4oncc4-c4cccc(F)c4F)c3c2)c1` [Compound 83, 2-{3-[4-(2,3-Difluoro-phenyl)-isoxazol-5-yl]-1H-pyrrolo [2,3-b]pyridin-5-yl}-pyridin-4-ylamine], the Ki at JAK3 and on c-Met was < 200 nM in each case.

For `CN(C)Cc1ccc(-c2cnc3[nH]cc(-c4oncc4-c4cccc(F)c4F)c3c2)nc1` [Compound 84, (6-{3-[4-(2,3-Difluoro-phenyl)-isoxazol-5-yl]-1H-pyrrolo[2,3-b]pyridin-5-yl}-pyridin-3-ylmethyl)-dimethyl-amine], the Ki on JAK3 and on c-Met was < 200 nM each time.

On to `Fc1cccc(-c2cnoc2-c2c[nH]c3ncc(-c4cncnc4)cc23)c1F` [Compound 85, 3-[4-(2,3-Difluoro-phenyl)-isoxazol-5-yl]-5-pyrimidin-5-yl-1H-pyrrolo[2,3-b]pyridine], for which the results for the Ki on JAK3 and on c-Met were 200 to 1000 nM and < 200 nM, respectively.

For the molecule `Nc1cccc(-c2cnc3[nH]cc(-c4oncc4-c4cccc(F)c4F)c3c2)c1` [Compound 86, 3-{3-[4-(2,3-Difluoro-phenyl)-isoxazol-5-yl]-1H-pyrrolo [2,3-b]pyridin-5-yl}-phenylamine], the Ki at JAK3 and on c-Met was < 200 nM throughout.

Regarding `Oc1cccc(-c2cnc3[nH]cc(-c4oncc4-c4cccc(F)c4F)c3c2)c1` [Compound 87, 3-{3-[4-(2,3-Difluoro-phenyl)-isoxazol-5-yl]-1H-pyrrolo [2,3-b]pyridin-5-yl}-phenol], the Ki at JAK3 and on c-Met was < 200 nM each time.

On to `CN(C)c1ccc(-c2cnc3[nH]cc(-c4oncc4-c4cccc(F)c4F)c3c2)cc1` [Compound 88, (4-{3-[4-(2,3-Difluoro-phenyl)-isoxazol-5-yl]-1H-pyrrolo[2,3-b]pyridin-5-yl}-phenyl)-dimethyl-amine], for which the Ki at JAK3 and on c-Met was < 200 nM throughout.

On to `Nc1ccc(-c2cnc3[nH]cc(-c4oncc4-c4cccc(F)c4F)c3c2)cc1` [Compound 90, 4-{3-[4-(2,3-Difluoro-phenyl)-isoxazol-5-yl]-1H-pyrrolo [2,3-b]pyridin-5-yl}-phenylamine], for which the Ki at JAK3 and at c-Met was < 200 nM in each case.

Consider `CN(C)Cc1ccc(-c2cnc3[nH]cc(-c4oncc4-c4cccc(F)c4F)c3c2)cc1` [Compound 91, (4-{3-[4-(2,3-Difluoro-phenyl)-isoxazol-5-yl]-1H-pyrrolo[2,3-b]pyridin-5-yl}-benzyl)-dimethyl-amine], for which the Ki at JAK3 and at c-Met was < 200 nM in each case.

With `Fc1cccc(-c2cnoc2-c2c[nH]c3ncc(-c4ccc(CN5CCOCC5)cc4)cc23)c1F` [Compound 92, 3-[4-(2,3-Difluoro-phenyl)-isoxazol-5-yl]-5-(4-morpholin-4-ylmethyl-phenyl)-1H-pyrrolo[2,3-b]pyridine], the Ki on JAK3 and at c-Met was < 200 nM throughout.

Take `Fc1cccc(-c2cnoc2-c2c[nH]c3ncc(-c4ccc(CN5CCCC5)cc4)cc23)c1F` [Compound 93, 3-[4-(2,3-Difluoro-phenyl)-isoxazol-5-yl]-5-(4-pyrrolidin-1-ylmethyl-phenyl)-1H-pyrrolo[2,3-b]pyridine]: the Ki at JAK3 and on c-Met was < 200 nM throughout.
